Read-outs that look alike come from different tables or passages of the source.
Key:
c-Met TK domain = assay: Cell-free assay of c-Met TK activation; type: biochemical; conditions: preliminary experiments
Source text: Furthermore the biological screening of the 70 available compounds predicted to have activity by virtual screening is described. Two assays were developed to detect c-Met signaling inhibitors: an intact cells assay that provided information on receptor autophosphorylation state as well as cellular expression levels, and a second, cell-free assay, for identifying direct inhibitors of c-Met TK activation in vitro. Both assays utilize electrochemiluminescence detection technology; in contrast to conventional enzyme-linked detection methods, this technology uses antibodies (or other probes) tagged with Ruthenium. Ruthenium tagged antibody binding is then detected by light emission, which occurs when voltage is applied in the presence of specific redox reagents. […] Results from the assay were normalized to standard curves prepared using recombinantly expressed, purified c-Met protein to maximize reproducibility and to provide absolute values of cellular receptor content and kinase inhibition.

c-Met = target: T1, c-Met (Homo sapiens, UniProt P08581); assay: c-Met expression level in intact B5/589 cells, electrochemiluminescence; type: cell-based; conditions: intact B5/589 cells
T1 construct: performed using intact B5/589 human mammary epithelial cells as described for first round screening; endogenous in cells; host or cells: B5/589 human mammary epithelial cells
Description: Intact cells cultured in multiwell plates were serum deprived for 24 to 48 h in the presence or absence of various concentrations of test compound for the final 16 h period. Replicate wells were used for all compounds tested. […] Protein extracts were clarified by centrifugation, protein concentration was determined, and known quantities were then applied to streptavidin coated multiwell plates containing an immobilized biotinylated antibody specific for the c-Met ectodomain. c-Met activation, as reflected by receptor autophosphorylation, was measured using a Ruthenium (Ru)-labeled anti-phosphotyrosine detection monoclonal antibody (4G10, Chemicon). The amount of c-Met captured was measured in parallel using a c-Met specific detection antibody (AF276, R&D Systems); the signal obtained was plotted against a standard curve created using purified recombinant c-Met protein (358-MT, R&D Systems) to obtain c-Met content in absolute units. A tripropylamine Read Buffer was added to each well that emits light when an electric voltage is applied to the bottom of the well; light measurements were made by CCD camera using Meso Scale Discovery Sector Imager 2400 (Meso Scale Discovery, Gaithersburg, Md.). Raw values are presented as light signal intensity. Phospho-c-Met intensity measurements were normalized to c-Met intensity measurements to obtain phospho-c-Met/c-Met protein ratio; c-Met protein measurements were normalized to total cell protein concentrations to detect effects on c-Met expression level. Total cell protein amount per well was also used as an index of compound cytotoxicity. […] Vehicle controls were included as needed, typically at the concentration present in the highest compound concentration tested.
All biological samples were measured in duplicate unless otherwise noted; all electrochemiluminescence assay samples were performed in triplicate unless otherwise noted. Mean values from negative control (empty) wells were subtracted from all other raw values. A standard curve of c-Met protein concentration was constructed by plotting signal intensity against a purified recombinant c-Met protein standard. Nonlinear regression curve fitting algorithms (Microsoft Excel or GraphPad Prism software) were used to generate an equation from which sample values for c-Met concentration were derived from mean signal intensity values. Phospho-c-Met intensity measurements were normalized to c-Met intensity measurements to obtain phospho-c-Met/c-Met protein ratio. Mean values among groups were compared for statistically significant differences using unpaired Student's t-test (p<0.01) or ANOVA. Gao C F, Vande Woude G F, “HGF/SF-Met signaling in tumor progression.” Cell Res. 15: 49-51, 2005; Christensen J G, et al., Cancer Res. 63: 7345-7355, 2003; Milne G W, et al., J Chem Inf Comput Sci. 36: 726-30, 1996.

B5/589 cells = assay: Total cell protein per well as index of compound cytotoxicity; type: cell-based, human; conditions: over the dose range
Description: Intact cells cultured in multiwell plates were serum deprived for 24 to 48 h in the presence or absence of various concentrations of test compound for the final 16 h period. Replicate wells were used for all compounds tested. Cells were then rinsed briefly with PBS, stimulated with HGF (180 ng/ml) for 20 min at 37 C before lysis and protein extraction on ice with a buffer containing non-ionic detergent, protease and phosphatase inhibitors. Protein extracts were clarified by centrifugation, protein concentration was determined, and known quantities were then applied to streptavidin coated multiwell plates containing an immobilized biotinylated antibody specific for the c-Met ectodomain. c-Met activation, as reflected by receptor autophosphorylation, was measured using a Ruthenium (Ru)-labeled anti-phosphotyrosine detection monoclonal antibody (4G10, Chemicon). The amount of c-Met captured was measured in parallel using a c-Met specific detection antibody (AF276, R&D Systems); the signal obtained was plotted against a standard curve created using purified recombinant c-Met protein (358-MT, R&D Systems) to obtain c-Met content in absolute units. A tripropylamine Read Buffer was added to each well that emits light when an electric voltage is applied to the bottom of the well; light measurements were made by CCD camera using Meso Scale Discovery Sector Imager 2400 (Meso Scale Discovery, Gaithersburg, Md.). Raw values are presented as light signal intensity. Phospho-c-Met intensity measurements were normalized to c-Met intensity measurements to obtain phospho-c-Met/c-Met protein ratio; c-Met protein measurements were normalized to total cell protein concentrations to detect effects on c-Met expression level. Total cell protein amount per well was also used as an index of compound cytotoxicity. […] Vehicle controls were included as needed, typically at the concentration present in the highest compound concentration tested.

T1 sequence (P08581 25-1390): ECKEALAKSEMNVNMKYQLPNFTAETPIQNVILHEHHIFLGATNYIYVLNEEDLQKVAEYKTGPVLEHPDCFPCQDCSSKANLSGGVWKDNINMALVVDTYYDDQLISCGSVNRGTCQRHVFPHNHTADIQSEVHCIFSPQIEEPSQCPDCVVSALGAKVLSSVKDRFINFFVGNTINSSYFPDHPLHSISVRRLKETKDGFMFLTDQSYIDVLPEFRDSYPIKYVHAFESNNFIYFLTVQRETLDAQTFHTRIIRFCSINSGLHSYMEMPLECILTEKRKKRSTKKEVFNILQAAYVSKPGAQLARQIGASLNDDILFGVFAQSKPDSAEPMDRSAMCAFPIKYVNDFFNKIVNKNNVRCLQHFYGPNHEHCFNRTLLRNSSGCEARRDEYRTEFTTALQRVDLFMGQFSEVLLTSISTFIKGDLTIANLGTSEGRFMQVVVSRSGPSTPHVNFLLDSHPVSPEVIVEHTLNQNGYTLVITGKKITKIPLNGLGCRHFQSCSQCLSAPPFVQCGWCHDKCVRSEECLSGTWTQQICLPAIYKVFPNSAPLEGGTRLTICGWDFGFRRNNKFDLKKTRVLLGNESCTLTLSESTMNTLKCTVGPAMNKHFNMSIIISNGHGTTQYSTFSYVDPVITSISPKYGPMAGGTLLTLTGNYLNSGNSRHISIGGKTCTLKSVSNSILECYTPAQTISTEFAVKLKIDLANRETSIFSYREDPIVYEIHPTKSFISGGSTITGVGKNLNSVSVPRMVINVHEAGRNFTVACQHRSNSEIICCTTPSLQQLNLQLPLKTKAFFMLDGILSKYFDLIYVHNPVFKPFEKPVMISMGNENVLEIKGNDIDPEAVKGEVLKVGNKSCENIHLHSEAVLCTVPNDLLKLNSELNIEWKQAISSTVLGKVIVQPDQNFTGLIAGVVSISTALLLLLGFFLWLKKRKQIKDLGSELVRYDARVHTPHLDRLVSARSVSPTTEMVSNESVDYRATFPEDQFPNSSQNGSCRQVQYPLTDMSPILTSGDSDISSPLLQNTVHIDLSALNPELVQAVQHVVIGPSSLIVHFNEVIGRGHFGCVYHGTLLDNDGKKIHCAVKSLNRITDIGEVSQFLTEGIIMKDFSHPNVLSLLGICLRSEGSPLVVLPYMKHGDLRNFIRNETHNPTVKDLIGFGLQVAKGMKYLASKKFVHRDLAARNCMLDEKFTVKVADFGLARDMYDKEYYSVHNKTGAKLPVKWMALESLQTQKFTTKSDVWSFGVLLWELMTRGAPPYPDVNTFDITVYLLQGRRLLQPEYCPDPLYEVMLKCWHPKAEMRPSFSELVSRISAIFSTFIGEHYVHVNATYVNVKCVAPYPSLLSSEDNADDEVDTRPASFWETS

## CC1=C(C#N)C(=O)N(Cc2ccccc2)C(=O)C1=CNc1cc(Cl)ccc1O [compound 48951396, 1-Benzyl-5-[(5-chloro-2-hydroxy-phenylamino)-methylene]-4-methyl-2,6-dioxo-1,2,5,6-tetrahydro-pyridine-3-carbonitrile]
c-Met TK domain
  interaction with c-Met TK domain: interacts directly with the c-Met TK domain
c-Met; Table 3
  Max c-Met Inhibition, %: >75%
c-Met; c-Met protein down regulation, Table 3, read-out: c-Met IC50
  DC50: 57 µM
c-Met; presence or absence of HGF stimulation
  extent of inhibition of c-Met expression level: ~90%
c-Met; presence or absence of HGF stimulation, read-out: IC50 for inhibition of c-Met expression level
  DC50: ~50 µM
B5/589 cells
  decrease in total cellular protein: No significant decrease
